{"source": "paper PMC5218480", "about": "(PLoS ONE, 2017)", "system": "MV-4-11 cells", "assay": "Gene expression microarray analysis (Affymetrix PrimeView) and GSEA", "type": "cell-based, human", "design": "RFU PODN (11730768_x_at) / Fold change /veh PODN (11730768_x_at) / RFU LINC00158 (11744669_a_at) / Fold change /veh LINC00158 (11744669_a_at) / RFU DUSP10 (11751237_a_at) / Fold change /veh DUSP10 (11751237_a_at) / RFU ID3 (11757404_x_at) / Fold change /veh ID3 (11757404_x_at) / RFU PLEKHG5 (11737974_s_at) / Fold change /veh PLEKHG5 (11737974_s_at) / RFU LRRC4B (11730491_at) / Fold change /veh LRRC4B (11730491_at) / RFU GIMAP4 (11747438_a_at) / Fold change /veh GIMAP4 (11747438_a_at) / RFU KRT8 (11758183_x_at) / Fold change /veh KRT8 (11758183_x_at) / RFU CNN1 (11734310_a_at) / Fold change /veh CNN1 (11734310_a_at) / RFU VPS37D (11726825_at) / Fold change /veh VPS37D (11726825_at) / RFU C10orf10 (11716522_x_at) / Fold change /veh C10orf10 (11716522_x_at) / RFU KIR2DL2 /// KIR2DL4 /// KIR2DL5A /// KIR2DL5B /// KIR2DS1 /// KIR2DS2 /// KIR2DS3 /// KIR2DS4 /// KIR3DL3 /// KIR3DL3 /// KIR3DS1 (11738374_at) / Fold change /veh KIR2DL2 /// KIR2DL4 /// KIR2DL5A /// KIR2DL5B /// KIR2DS1 /// KIR2DS2 /// KIR2DS3 /// KIR2DS4 /// KIR3DL3 /// KIR3DL3 /// KIR3DS1 (11738374_at) / RFU C1QL1 (11718748_at) / Fold change /veh C1QL1 (11718748_at) / RFU TMPRSS4 (11747572_a_at) / Fold change /veh TMPRSS4 (11747572_a_at) / RFU HAMP (11756126_x_at) / Fold change /veh HAMP (11756126_x_at) / RFU RNFT2 (11725882_a_at) / Fold change /veh RNFT2 (11725882_a_at) / RFU NR4A2 (11747474_a_at) / Fold change /veh NR4A2 (11747474_a_at) / RFU ABCC12 (11746883_a_at) / Fold change /veh ABCC12 (11746883_a_at) / RFU TMEM136 (11760407_x_at) / Fold change /veh TMEM136 (11760407_x_at) / RFU CLDN22 /// WWC2 (11732394_at) / Fold change /veh CLDN22 /// WWC2 (11732394_at) / RFU HLA-DPB1 (11760878_x_at) / Fold change /veh HLA-DPB1 (11760878_x_at) / RFU SPINT1 (11716480_a_at) / Fold change /veh SPINT1 (11716480_a_at) / RFU GAP43 (11754022_s_at) / Fold change /veh GAP43 (11754022_s_at) / RFU A4GNT (11735810_at) / Fold change /veh A4GNT (11735810_at) / RFU PRB3 (11715151_x_at) / Fold change /veh PRB3 (11715151_x_at) / RFU TUBB4B (11761932_at) / Fold change /veh TUBB4B (11761932_at) / RFU CAPN14 (11732068_a_at) / Fold change /veh CAPN14 (11732068_a_at) / RFU TMCC2 (11721928_a_at) / Fold change /veh TMCC2 (11721928_a_at) / RFU IRGQ (11745062_a_at) / Fold change /veh IRGQ (11745062_a_at) / RFU FAM174B (11720279_a_at) / Fold change /veh FAM174B (11720279_a_at) / RFU TMPRSS4 (11748680_a_at) / Fold change /veh TMPRSS4 (11748680_a_at) / RFU FAM212B (11763350_a_at) / Fold change /veh FAM212B (11763350_a_at) / RFU PLEKHG5 (11743358_a_at) / Fold change /veh PLEKHG5 (11743358_a_at) / RFU ZSCAN30 (11745921_a_at) / Fold change /veh ZSCAN30 (11745921_a_at) / RFU CMKLR1 (11741424_a_at) / Fold change /veh CMKLR1 (11741424_a_at) / RFU LOC101060620 /// MAPK8IP1 (11723275_at) / Fold change /veh LOC101060620 /// MAPK8IP1 (11723275_at) / RFU SPTSSB (11747773_x_at) / Fold change /veh SPTSSB (11747773_x_at) / RFU PRSS12 (11739890_at) / Fold change /veh PRSS12 (11739890_at) / RFU BIN1 (11741810_x_at) / Fold change /veh BIN1 (11741810_x_at) / RFU WNT11 (11732464_a_at) / Fold change /veh WNT11 (11732464_a_at) / RFU C10orf10 (11716521_a_at) / Fold change /veh C10orf10 (11716521_a_at) / RFU C5orf56 (11738089_at) / Fold change /veh C5orf56 (11738089_at) / RFU CYB561 (11721691_x_at) / Fold change /veh CYB561 (11721691_x_at) / RFU ANKRD19P (11752326_a_at) / Fold change /veh ANKRD19P (11752326_a_at) / RFU OR2T12 /// OR2T33 /// OR2T8 (11738714_s_at) / Fold change /veh OR2T12 /// OR2T33 /// OR2T8 (11738714_s_at) / RFU VCAN (11748164_a_at) / Fold change /veh VCAN (11748164_a_at) / RFU JSRP1 (11732532_at) / Fold change /veh JSRP1 (11732532_at) / RFU KRTAP10-11 (11738290_x_at) / Fold change /veh KRTAP10-11 (11738290_x_at) / RFU MYO3A (11730013_a_at) / Fold change /veh MYO3A (11730013_a_at) / RFU EBF3 (11725865_a_at) / Fold change /veh EBF3 (11725865_a_at) / RFU CAMK2N1 (11719241_x_at) / Fold change /veh CAMK2N1 (11719241_x_at) / RFU C5orf56 (11738088_a_at) / Fold change /veh C5orf56 (11738088_a_at) / RFU OLFML3 (11715873_a_at) / Fold change /veh OLFML3 (11715873_a_at) / RFU LOC100653217 /// NTM (11731650_a_at) / Fold change /veh LOC100653217 /// NTM (11731650_a_at) / RFU MAPK11 (11762145_a_at) / Fold change /veh MAPK11 (11762145_a_at) / RFU FIZ1 (11724087_x_at) / Fold change /veh FIZ1 (11724087_x_at) / RFU OASL (11726364_x_at) / Fold change /veh OASL (11726364_x_at) / RFU SOX15 (11748057_x_at) / Fold change /veh SOX15 (11748057_x_at) / RFU CD79A (11719716_a_at) / Fold change /veh CD79A (11719716_a_at) / RFU HIST1H1D (11736915_at) / Fold change /veh HIST1H1D (11736915_at) / RFU CASKIN2 (11723855_a_at) / Fold change /veh CASKIN2 (11723855_a_at) / RFU LOC730098 (11760151_x_at) / Fold change /veh LOC730098 (11760151_x_at) / RFU OR4N2 (11742367_at) / Fold change /veh OR4N2 (11742367_at) / RFU PRRT2 (11749266_a_at) / Fold change /veh PRRT2 (11749266_a_at) / RFU SNX32 (11753110_a_at) / Fold change /veh SNX32 (11753110_a_at) / RFU CDHR5 (11726645_a_at) / Fold change /veh CDHR5 (11726645_a_at) / RFU RCAN1 (11760418_a_at) / Fold change /veh RCAN1 (11760418_a_at) / RFU FAM167A (11723789_a_at) / Fold change /veh FAM167A (11723789_a_at) / RFU FAM26E (11764081_at) / Fold change /veh FAM26E (11764081_at) / RFU ISYNA1 (11749810_s_at) / Fold change /veh ISYNA1 (11749810_s_at) / RFU ACY1 (11761880_at) / Fold change /veh ACY1 (11761880_at) / RFU 11764098_at / Fold change /veh 11764098_at / RFU SAMD14 (11745864_x_at) / Fold change /veh SAMD14 (11745864_x_at) / RFU NPB (11741838_a_at) / Fold change /veh NPB (11741838_a_at) / RFU TMPRSS6 (11731388_a_at) / Fold change /veh TMPRSS6 (11731388_a_at) / RFU KRTAP10-2 (11738614_at) / Fold change /veh KRTAP10-2 (11738614_at) / RFU ARHGAP8 /// PRR5-ARHGAP8 (11727945_x_at) / Fold change /veh ARHGAP8 /// PRR5-ARHGAP8 (11727945_x_at) / RFU KRTAP5-7 /// NADSYN1 (11734609_at) / Fold change /veh KRTAP5-7 /// NADSYN1 (11734609_at) / RFU RASL12 (11751679_a_at) / Fold change /veh RASL12 (11751679_a_at) / RFU CDKN2B (11736163_a_at) / Fold change /veh CDKN2B (11736163_a_at) / RFU PRF1 (11729649_at) / Fold change /veh PRF1 (11729649_at) / RFU, ZNF638 /// ZNF638-IT1 / Fold change vs veh, ZNF638 /// ZNF638-IT1 / RFU, PANK3 / Fold change vs veh, PANK3 / RFU, SH3YL1 / Fold change vs veh, SH3YL1 / RFU, ZEB2 / Fold change vs veh, ZEB2 / RFU, NRIP1 / Fold change vs veh, NRIP1 / RFU, PTTG1IP / Fold change vs veh, PTTG1IP / RFU, CAPN2 / Fold change vs veh, CAPN2 / RFU, MED14 / Fold change vs veh, MED14 / RFU, SNORA58 / Fold change vs veh, SNORA58 / RFU, C1orf63 / Fold change vs veh, C1orf63 / RFU, LRRFIP1 / Fold change vs veh, LRRFIP1 / RFU, NDUFAF7 / Fold change vs veh, NDUFAF7 / RFU, SLC12A2 / Fold change vs veh, SLC12A2 / RFU, IBTK / Fold change vs veh, IBTK / RFU, ESF1 / Fold change vs veh, ESF1 / Fold change vs veh, TMEM50B / RFU, TAOK1 / Fold change vs veh, TAOK1 / RFU, ACBD3 / Fold change vs veh, ACBD3 / RFU, TMA16 / Fold change vs veh, TMA16 / RFU, RWDD3 / Fold change vs veh, RWDD3 / RFU, BCAT1 / Fold change vs veh, BCAT1 / RFU, EDEM3 / Fold change vs veh, EDEM3 / RFU, TMEM33 / Fold change vs veh, TMEM33 / RFU, WDR75 / Fold change vs veh, WDR75 / RFU, AHCTF1 / Fold change vs veh, AHCTF1 / RFU, TFRC / Fold change vs veh, TFRC / RFU, ZDHHC17 / Fold change vs veh, ZDHHC17 / RFU, NOM1 / Fold change vs veh, NOM1 / RFU, ARL8B / Fold change vs veh, ARL8B / RFU, ZBTB11 / Fold change vs veh, ZBTB11 / RFU, TAMM41 / Fold change vs veh, TAMM41 / RFU, KIAA1704 /// LOC100996395 / Fold change vs veh, KIAA1704 /// LOC100996395 / RFU, ING1 / Fold change vs veh, ING1 / RFU, TRMT61B / Fold change vs veh, TRMT61B / RFU, FUBP3 / Fold change vs veh, FUBP3 / RFU, TP53 / Fold change vs veh, TP53 / RFU, TNKS2 / Fold change vs veh, TNKS2 / RFU, ZFP14 / Fold change vs veh, ZFP14 / RFU, ACTR2 / Fold change vs veh, ACTR2 / RFU, PPP3R1 / Fold change vs veh, PPP3R1 / RFU, PIK3R1 / Fold change vs veh, PIK3R1 / RFU, HNRNPA1 / Fold change vs veh, HNRNPA1 / RFU, RNF170 / Fold change vs veh, RNF170 / RFU, ZNF28 / Fold change vs veh, ZNF28 / RFU, RNGTT / Fold change vs veh, RNGTT / RFU, OGT / Fold change vs veh, OGT / RFU, BRD1 / Fold change vs veh, BRD1 / RFU, MARS / Fold change vs veh, MARS / RFU, ZNF655 / Fold change vs veh, ZNF655 / RFU, FAHD1 / Fold change vs veh, FAHD1 / RFU, BDP1 / Fold change vs veh, BDP1 / RFU, LRRCC1 / Fold change vs veh, LRRCC1 / RFU, ARID1A / Fold change vs veh, ARID1A / RFU, ZNF146 / Fold change vs veh, ZNF146 / RFU, ZNF330 / Fold change vs veh, ZNF330 / RFU, GPN3 / Fold change vs veh, GPN3 / RFU, C9orf123 / Fold change vs veh, C9orf123 / RFU, N4BP2L2 / Fold change vs veh, N4BP2L2 / RFU, ARFIP1 / Fold change vs veh, ARFIP1 / RFU, FAM179B / Fold change vs veh, FAM179B / RFU, BCL10 / Fold change vs veh, BCL10 / RFU, UHRF1BP1L / Fold change vs veh, UHRF1BP1L / RFU, BET1 / Fold change vs veh, BET1 / RFU, CNOT2 / Fold change vs veh, CNOT2 / RFU, ZNF268 / Fold change vs veh, ZNF268 / Fold change vs veh, ZNF507 / RFU, DGCR2 / Fold change vs veh, DGCR2 / RFU, WDSUB1 / Fold change vs veh, WDSUB1 / Fold change vs veh, HSP90B1 /// MIR3652 / RFU, ADSS / Fold change vs veh, ADSS / RFU, GK / Fold change vs veh, GK / RFU, ZNF148 / Fold change vs veh, ZNF148 / RFU, TAF9 / Fold change vs veh, TAF9 / RFU, SLC1A5 / Fold change vs veh, SLC1A5 / RFU, SLMO2 / Fold change vs veh, SLMO2 / RFU, ABCC4 / Fold change vs veh, ABCC4 / RFU, LOC101060439 /// RAP1B / Fold change vs veh, LOC101060439 /// RAP1B / RFU, RFX7 / Fold change vs veh, RFX7 / RFU, GTPBP10 / Fold change vs veh, GTPBP10 / RFU, CNEP1R1 / Fold change vs veh, CNEP1R1 / RFU, BIVM-ERCC5 /// ERCC5 / Fold change vs veh, BIVM-ERCC5 /// ERCC5 / RFU, ILF3 / Fold change vs veh, ILF3 / RFU 11762660_at / Fold change /veh 11762660_at / RFU VCAN (11757783_s_at) / Fold change /veh VCAN (11757783_s_at) / RFU DDX43 (11728927_at) / Fold change /veh DDX43 (11728927_at) / RFU KRT8 (11758188_x_at) / Fold change /veh KRT8 (11758188_x_at) / RFU NKD1 (11759106_at) / Fold change /veh NKD1 (11759106_at) / RFU SRD5A1 (11742802_a_at) / Fold change /veh SRD5A1 (11742802_a_at) / RFU TPSAB1 /// TPSB2 (11721975_s_at) / Fold change /veh TPSAB1 /// TPSB2 (11721975_s_at) / RFU GSTM3 (11746129_a_at) / Fold change /veh GSTM3 (11746129_a_at) / RFU IL23R (11737362_x_at) / Fold change /veh IL23R (11737362_x_at) / RFU TMEM51 (11727254_a_at) / Fold change /veh TMEM51 (11727254_a_at) / RFU PIWIL2 (11732686_x_at) / Fold change /veh PIWIL2 (11732686_x_at) / RFU ORM1 (11744905_x_at) / Fold change /veh ORM1 (11744905_x_at) / RFU CCDC152 (11743942_at) / Fold change /veh CCDC152 (11743942_at) / RFU ECM1 (11717891_a_at) / Fold change /veh ECM1 (11717891_a_at) / RFU IL23R (11748794_a_at) / Fold change /veh IL23R (11748794_a_at) / RFU TNFAIP8L3 (11732012_x_at) / Fold change /veh TNFAIP8L3 (11732012_x_at) / RFU MBOAT4 (11741988_at) / Fold change /veh MBOAT4 (11741988_at) / RFU 11764193_at / Fold change /veh 11764193_at / RFU TMEM53 (11763286_at) / Fold change /veh TMEM53 (11763286_at) / RFU MAGEB2 (11727129_at) / Fold change /veh MAGEB2 (11727129_at) / RFU TMEM200A (11744735_a_at) / Fold change /veh TMEM200A (11744735_a_at) / RFU CCDC152 (11751479_a_at) / Fold change /veh CCDC152 (11751479_a_at) / RFU FAM211A (11726209_a_at) / Fold change /veh FAM211A (11726209_a_at) / RFU RGS16 (11746705_a_at) / Fold change /veh RGS16 (11746705_a_at) / RFU VCAN (11755009_s_at) / Fold change /veh VCAN (11755009_s_at) / RFU RHOB (11743442_s_at) / Fold change /veh RHOB (11743442_s_at) / RFU RGS16 (11720943_a_at) / Fold change /veh RGS16 (11720943_a_at) / RFU RGS16 (11720944_at) / Fold change /veh RGS16 (11720944_at) / RFU, VPS4B / Fold change vs veh, VPS4B / RFU, CREB1 / Fold change vs veh, CREB1 / RFU, DNAJC13 / Fold change vs veh, DNAJC13 / RFU, GNAQ / Fold change vs veh, GNAQ / RFU, CDK5R1 / Fold change vs veh, CDK5R1 / RFU, ZRANB3 / Fold change vs veh, ZRANB3 / RFU, CUL4A / Fold change vs veh, CUL4A / RFU, CCNY / Fold change vs veh, CCNY / RFU, UFL1 / Fold change vs veh, UFL1 / RFU, COG3 / Fold change vs veh, COG3 / RFU, DIAPH2 / Fold change vs veh, DIAPH2 / RFU, SKA2 / Fold change vs veh, SKA2 / RFU, AFF3 / Fold change vs veh, AFF3 / RFU, LMF1 / Fold change vs veh, LMF1 / RFU, IPO11 / Fold change vs veh, IPO11 / RFU, DFFB / Fold change vs veh, DFFB / RFU, FOXP1 / Fold change vs veh, FOXP1 / RFU, CARD8 / Fold change vs veh, CARD8 / RFU, STRN3 / Fold change vs veh, STRN3 / RFU, ADK / Fold change vs veh, ADK / RFU, RASSF2 / Fold change vs veh, RASSF2 / RFU, WIPF1 / Fold change vs veh, WIPF1 / RFU, LARP1B / Fold change vs veh, LARP1B / RFU, RASA1 / Fold change vs veh, RASA1 / RFU, RB1 / Fold change vs veh, RB1 / RFU, PPFIA1 / Fold change vs veh, PPFIA1 / RFU, MAT2A / Fold change vs veh, MAT2A / RFU, CCT5 / Fold change vs veh, CCT5 / RFU, WDR92 / Fold change vs veh, WDR92 / RFU, CUX1 / Fold change vs veh, CUX1 / RFU, TTC7A / Fold change vs veh, TTC7A / RFU, TMEM135 / Fold change vs veh, TMEM135 / RFU, DEPTOR / Fold change vs veh, DEPTOR / RFU, CPM / Fold change vs veh, CPM / RFU, DNAJB6 / Fold change vs veh, DNAJB6 / RFU, CACNA2D3 / Fold change vs veh, CACNA2D3 / RFU, DTX4 / Fold change vs veh, DTX4 / RFU, TFCP2 / Fold change vs veh, TFCP2 / RFU, GMCL1 /// GMCL1P1 / Fold change vs veh, GMCL1 /// GMCL1P1 / RFU, AEBP2 / Fold change vs veh, AEBP2 / RFU, SNHG1 /// SNORD22 /// SNORD25 /// SNORD26 /// SNORD27 /// SNORD28 /// SNORD29 /// SNORD31 / Fold change vs veh, SNHG1 /// SNORD22 /// SNORD25 /// SNORD26 /// SNORD27 /// SNORD28 /// SNORD29 /// SNORD31 / Fold change (Aza/veh), C12orf56 (ProbeSet 11735607_a_at) / Fold change (ACY-1035/veh), C12orf56 (ProbeSet 11735607_a_at) / Fold change (Aza/veh), FGFR1OP (ProbeSet 11751329_s_at) / Fold change (ACY-1035/veh), FGFR1OP (ProbeSet 11751329_s_at) / Fold change (Aza/veh), VPS36 (ProbeSet 11739960_a_at) / Fold change (ACY-1035/veh), VPS36 (ProbeSet 11739960_a_at) / RFU SYPL1 (11715823_x_at) / Fold change /veh SYPL1 (11715823_x_at) / RFU IGFBP7 (11715501_s_at) / Fold change /veh IGFBP7 (11715501_s_at) / RFU REEP3 (11722064_at) / Fold change /veh REEP3 (11722064_at) / RFU IGLL1 (11728026_x_at) / Fold change /veh IGLL1 (11728026_x_at): dose or concentration left out as unconfirmed", "details": "MV-4-11 cells, 48 hours", "data": [{"smiles": "Nc1ccc(-c2cccs2)cc1NC(=O)c1ccc2c(c1)cc(C1CC1)n2CCN1CCOCC1", "note": "[ACY-1035]", "values": [{"measurement": "RFU 11764098_at", "value": 18.10, "unit": "RFU"}]}]}
